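Each compound was tested at five concentrations against cells in 96-well plates for 48 hours. TGI is the concentration that stops growth completely.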
Tests used:
Test in all cases: growth of human tumour cells (NCI), 48 h
DLD-1 colon = test system: DLD-1 colon
OVCAR-3 ovarian = test system: OVCAR-3 ovarian
SK-OV-3 ovarian = test system: SK-OV-3 ovarian
A498 renal = test system: A498 renal
RPMI-8226 leukemia = test system: RPMI-8226 leukemia
HCT-116 colon = test system: HCT-116 colon
SW-620 colon = test system: SW-620 colon
SNB-19 CNS = test system: SNB-19 CNS
KM12 colon = test system: KM12 colon
ACHN renal = test system: ACHN renal
NCI-H460 lung = test system: NCI-H460 lung
OVCAR-5 ovarian = test system: OVCAR-5 ovarian
K-562 leukemia = test system: K-562 leukemia
MDA-MB-435 = test system: MDA-MB-435
SK-MEL-5 melanoma = test system: SK-MEL-5 melanoma
EKVX NSCLC = test system: EKVX NSCLC
SN12C renal = test system: SN12C renal
DU-145 prostate = test system: DU-145 prostate
HOP-18 NSCLC = test system: HOP-18 NSCLC
MOLT-4 leukemia = test system: MOLT-4 leukemia
T-47D breast = test system: T-47D breast
HOP-62 NSCLC = test system: HOP-62 NSCLC
SNB-78 CNS = test system: SNB-78 CNS
COLO 205 colon = test system: COLO 205 colon
OVCAR-8 ovarian = test system: OVCAR-8 ovarian
A549 NSCLC = test system: A549 NSCLC
RXF 393 renal = test system: RXF 393 renal
CAKI-1 renal = test system: CAKI-1 renal
HCT-15 colon = test system: HCT-15 colon
SF-539 CNS = test system: SF-539 CNS
NCI-H23 lung = test system: NCI-H23 lung
HL-60(TB) leukemia = test system: HL-60(TB) leukemia
SR leukemia = test system: SR leukemia
DMS 273 small cell lung = test system: DMS 273 small cell lung
M14 melanoma = test system: M14 melanoma
SK-MEL-28 melanoma = test system: SK-MEL-28 melanoma
LOX IMVI melanoma = test system: LOX IMVI melanoma
LXFL 529 NSCLC = test system: LXFL 529 NSCLC
CCRF-CEM leukemia = test system: CCRF-CEM leukemia
HS 578T breast = test system: HS 578T breast
MCF7 breast = test system: MCF7 breast
KM20L2 colon = test system: KM20L2 colon
UO-31 renal = test system: UO-31 renal
DMS 114 small cell lung = test system: DMS 114 small cell lung
HOP-92 NSCLC = test system: HOP-92 NSCLC
NCI/ADR-RES ovarian = test system: NCI/ADR-RES ovarian
UACC-62 melanoma = test system: UACC-62 melanoma
SF-268 CNS = test system: SF-268 CNS
IGROV1 ovarian = test system: IGROV1 ovarian
M19-MEL melanoma = test system: M19-MEL melanoma
786-0 renal = test system: 786-0 renal
SK-MEL-2 melanoma = test system: SK-MEL-2 melanoma
PC-3 prostate = test system: PC-3 prostate
HCC-2998 colon = test system: HCC-2998 colon
OVCAR-4 ovarian = test system: OVCAR-4 ovarian
TK-10 renal = test system: TK-10 renal
MDA-MB-231 breast = test system: MDA-MB-231 breast
BT-549 breast = test system: BT-549 breast
HT29 colon = test system: HT29 colon
MALME-3M melanoma = test system: MALME-3M melanoma
NCI-H522 lung = test system: NCI-H522 lung
SF-295 CNS = test system: SF-295 CNS
UACC-257 melanoma = test system: UACC-257 melanoma
SNB-75 CNS = test system: SNB-75 CNS
NCI-H226 lung = test system: NCI-H226 lung
XF 498 CNS = test system: XF 498 CNS
U251 CNS = test system: U251 CNS
RXF-631 renal = test system: RXF-631 renal

SMILES: NC(N)=NS(=O)(=O)c1ccc(NC(=O)c2cccc3c(=O)c4ccccc4[nH]c23)cc1
- TGI (DLD-1 colon): > 100 µM
- TGI (OVCAR-3 ovarian): > 100 µM
- TGI (SK-OV-3 ovarian): > 91.9 µM
- TGI (A498 renal): > 100 µM
- TGI (RPMI-8226 leukemia): > 100 µM
- TGI (HCT-116 colon): > 100 µM
- TGI (SW-620 colon): > 100 µM
- TGI (SNB-19 CNS): > 100 µM
- TGI (KM12 colon): > 100 µM
- TGI (ACHN renal): > 100 µM
- TGI (NCI-H460 lung): > 100 µM
- TGI (OVCAR-5 ovarian): > 100 µM
- TGI (K-562 leukemia): > 56.2 µM
- TGI (MDA-MB-435): > 100 µM
- TGI (SK-MEL-5 melanoma): > 100 µM
- TGI (EKVX NSCLC): > 100 µM
- TGI (SN12C renal): > 100 µM
- TGI (DU-145 prostate): > 100 µM
- TGI (HOP-18 NSCLC): > 100 µM
- TGI (MOLT-4 leukemia): > 100 µM
- TGI (T-47D breast): > 100 µM
- TGI (HOP-62 NSCLC): > 100 µM
- TGI (SNB-78 CNS): > 100 µM
- TGI (COLO 205 colon): > 100 µM
- TGI (OVCAR-8 ovarian): > 100 µM
- TGI (A549 NSCLC): > 100 µM
- TGI (RXF 393 renal): > 80.3 µM
- TGI (CAKI-1 renal): > 100 µM
- TGI (HCT-15 colon): > 100 µM
- TGI (SF-539 CNS): > 100 µM
- TGI (NCI-H23 lung): > 100 µM
- TGI (HL-60(TB) leukemia): > 100 µM
- TGI (SR leukemia): > 100 µM
- TGI (DMS 273 small cell lung): > 100 µM
- TGI (M14 melanoma): > 100 µM
- TGI (SK-MEL-28 melanoma): > 100 µM
- TGI (LOX IMVI melanoma): > 100 µM
- TGI (LXFL 529 NSCLC): > 100 µM
- TGI (CCRF-CEM leukemia): > 31.6 µM
- TGI (HS 578T breast): > 100 µM
- TGI (MCF7 breast): > 100 µM
- TGI (KM20L2 colon): > 100 µM
- TGI (UO-31 renal): > 100 µM
- TGI (DMS 114 small cell lung): > 100 µM
- TGI (HOP-92 NSCLC): > 96.2 µM
- TGI (NCI/ADR-RES ovarian): > 100 µM
- TGI (UACC-62 melanoma): > 100 µM
- TGI (SF-268 CNS): > 100 µM
- TGI (IGROV1 ovarian): > 100 µM
- TGI (M19-MEL melanoma): > 100 µM
- TGI (786-0 renal): > 92.6 µM
- TGI (SK-MEL-2 melanoma): > 100 µM
- TGI (PC-3 prostate): > 100 µM
- TGI (HCC-2998 colon): > 100 µM
- TGI (OVCAR-4 ovarian): > 100 µM
- TGI (TK-10 renal): > 81.2 µM
- TGI (MDA-MB-231 breast): > 100 µM
- TGI (BT-549 breast): > 100 µM
- TGI (HT29 colon): > 100 µM
- TGI (MALME-3M melanoma): > 100 µM
- TGI (NCI-H522 lung): > 100 µM
- TGI (SF-295 CNS): > 100 µM
- TGI (UACC-257 melanoma): > 100 µM
- TGI (SNB-75 CNS): 51.3 µM
- TGI (NCI-H226 lung): > 100 µM
- TGI (XF 498 CNS): > 100 µM
- TGI (U251 CNS): 69.2 µM

SMILES: O=C(Cc1cc[n+]([O-])cc1)C(=O)Nc1cc(Cl)c(Cl)cc1Cl
- TGI (DLD-1 colon): > 100 µM
- TGI (OVCAR-3 ovarian): > 100 µM
- TGI (SK-OV-3 ovarian): > 100 µM
- TGI (A498 renal): > 100 µM
- TGI (RPMI-8226 leukemia): > 100 µM
- TGI (HCT-116 colon): > 100 µM
- TGI (SW-620 colon): > 100 µM
- TGI (SNB-19 CNS): > 100 µM
- TGI (KM12 colon): > 100 µM
- TGI (ACHN renal): > 100 µM
- TGI (NCI-H460 lung): > 100 µM
- TGI (OVCAR-5 ovarian): > 100 µM
- TGI (K-562 leukemia): > 100 µM
- TGI (SK-MEL-5 melanoma): > 100 µM
- TGI (EKVX NSCLC): > 100 µM
- TGI (MOLT-4 leukemia): > 100 µM
- TGI (HOP-62 NSCLC): > 100 µM
- TGI (SNB-78 CNS): > 100 µM
- TGI (COLO 205 colon): > 100 µM
- TGI (OVCAR-8 ovarian): > 100 µM
- TGI (A549 NSCLC): > 100 µM
- TGI (RXF 393 renal): > 100 µM
- TGI (HCT-15 colon): > 100 µM
- TGI (SF-539 CNS): > 100 µM
- TGI (NCI-H23 lung): > 100 µM
- TGI (HL-60(TB) leukemia): > 100 µM
- TGI (M14 melanoma): > 100 µM
- TGI (SK-MEL-28 melanoma): > 100 µM
- TGI (LXFL 529 NSCLC): > 100 µM
- TGI (CCRF-CEM leukemia): > 100 µM
- TGI (KM20L2 colon): > 100 µM
- TGI (RXF-631 renal): > 100 µM
- TGI (UO-31 renal): > 100 µM
- TGI (DMS 114 small cell lung): > 100 µM
- TGI (HOP-92 NSCLC): > 100 µM
- TGI (UACC-62 melanoma): > 100 µM
- TGI (SF-268 CNS): > 100 µM
- TGI (IGROV1 ovarian): > 100 µM
- TGI (M19-MEL melanoma): > 100 µM
- TGI (786-0 renal): > 100 µM
- TGI (SK-MEL-2 melanoma): > 100 µM
- TGI (HCC-2998 colon): > 100 µM
- TGI (OVCAR-4 ovarian): > 100 µM
- TGI (TK-10 renal): > 100 µM
- TGI (MALME-3M melanoma): > 100 µM
- TGI (NCI-H522 lung): > 100 µM
- TGI (SF-295 CNS): > 100 µM
- TGI (UACC-257 melanoma): > 100 µM
- TGI (SNB-75 CNS): > 100 µM
- TGI (U251 CNS): > 100 µM

Reference: PubChem BioAssay (NCI)
